Key:
[1] = test system: various cancer cell strains (A549, H460, MCF-7, T-470, LoVo, SW480, HL-60, K562); assay: Cancer cell growth inhibition, WST-1 cell viability; format: cell-based, human; conditions: for selectivity of cell growth inhibitory effect, cancer versus non-cancer cell strains: cancer cell strains vs MRC-5 and MRC-9; for growth inhibitory effects on various cancer cell strains: concentration of 50 μM, WST-1
Procedure: (§1) Cancer cell growth inhibitory effects of the compounds PB01 and PB11 of Examples 5 and 3 identified as PPAR-γ ligands were evaluated. Growth inhibitory effects of the compounds PB01 and PB11 of Examples 5 and 3 on various cancer cells, including human non-small cell lung cancer cell strains (A549, H460), breast cancer cell strains (MCF-7, T-470), colorectal cancer cell strains (LoVo, SW480), and leukocytes cancer cell strains (HL-60, K562) (American Type Culture Collection, Manassas, Va.), were evaluated using WST-1 method. About 5×10^3 cells per well of each type of cancer cell strains were portioned into a 96-well plate, and incubated with different concentrations of each of the compounds PB01 and PB11 of Examples 5 and 3 in 200 ul of a culture solution for 24 hours, 48 hours, and 72 hours. After the incubation for the different durations, 10 ul of a WST-1 solution was added to each well, followed by incubation at about 37° C. for about 1 hour. Absorbance at 450 nm was measured to determine cell viability.

[2] = test system: non-small cell lung cancer cell strain H460; assay: Trypan blue live cell count (cell viability); format: cell-based, human; conditions: for cancer cell apoptosis effect: 50 μM; for cancer cell apoptosis effect with respect to concentration and incubation time: FIGS. 3A and 3B, PB12 at 150 μM; for IC50: Homo sapiens, NCI-H460, time taken to reach the IC50 48 hours
Procedure: (§2) Whether the cancer cell growth inhibitory effects of the compounds PB01 and PB11 on the non-small cell lung cancer cell strains is associated with apoptosis was investigated. The cell growth inhibitory effects were evaluated by a trypan blue assay, and cell shapes were observed using an inverted microscope. The shapes of cell nuclei were observed via Hoeschst 33342 staining. Degrees of inducing apoptosis were quantized by flow cytometry (fluorescent activated cell sorting (FACS)).
(§3) After about 5×10^3 cells per well of each of the human non-small cell lung cancer cell strains A549 and H460 were portioned into a 96-well plate, about 10 uM to about 50 uM of the compounds PB01 or PB11 in 200 ul of culture solution were added into the wells, and incubated for about 8 to 72 hours. Cells were collected from the incubation product, and centrifuged at about 2,000 rpm for 5 minutes. After removing a supernatant, the remaining cells were mixed with 1 mL of phosphate-buffered saline (PBS) to obtain a cell suspension, which was then mixed with an equal amount of 0.5% trypan blue (Gibco BRL), followed by treatment for about 1 minute. The number of live cells was counted using a phase-contrast) microscope. The live cell counting was repeated three times, and an average live cell count and a standard error were calculated using a Microsoft Excel program. Cell viability graphs with respect to compound concentration and incubation time were obtained. The same experiment was performed with 50 μM of the compound PB01, PB11 50 μM of the compound PB11, or 150 μM of the compound PB12 150 μM, and cell viability graphs with respect to compound concentration and incubation time were obtained.

[3] = test system: non-small cell lung cancer cell strain A549; assay: Trypan blue live cell count (cell viability); format: cell-based, human; conditions: for cancer cell apoptosis effect: 50 μM; for cancer cell apoptosis effect with respect to concentration and incubation time: 10-50 uM, 8 to 72 hours, FIG. 3A; for IC50: Homo sapiens, time taken to reach the IC50 48 hours
Procedure: as §2, §3

[4] = test system: non-small cell lung cancer cell strain H460; assay: LDH release; format: cell-based, human; conditions: 50 uM, 0 to 48 hours, compared to untreated
Procedure: (§4) After incubation of the non-small cell lung cancer cell strains A549 and H460 treated with the compound PB01 or PB11 for 8, 24, and 48 hours, only supernatants were recovered the culture products. The activity of lactate dehydrogenase (LDH) may be measured by detecting an amount of LDH released from the cell cytosol with a Cytotoxicity Detection Kit (available from Roche Applied Science, Indianapolis, Ind.). The amounts of LDH release induced by the compound PB01 or PB11 were calculated as a percentage amount of extracellular LDH released from the cells with respect to a total amount of LDH as a sum of the extracellular released LDH and the intracellular LDH remaining in the cells.

[5] = test system: non-small cell lung cancer cell strain A549; assay: LDH release; format: cell-based, human; conditions: 50 uM, 0 to 48 hours, compared to untreated
Procedure: as §4

[6] = test system: non-small cell lung cancer cell strain H460; assay: Cancer cell growth inhibition, WST-1 cell viability; format: cell-based, human; conditions: compared among cell strains
Procedure: as §1

[7] = test system: non-small cell lung cancer cell strain A549; assay: as above; format: cell-based, human; conditions: compared among cell strains
Procedure: as §1

[8] = test system: non-cancer lung cell strain MRC-5; assay: Cell growth inhibition in non-cancer lung cells; format: cell-based; conditions: MRC-5 non-cancer lung cells
[9] = test system: non-cancer lung cell strain MRC-9; assay: Cell growth inhibition in non-cancer lung cells; format: cell-based; conditions: MRC-9 non-cancer lung cells

IC50 [2] [µM]	IC50 [3] [µM]	Structure (SMILES)	selectivity of cell growth inhibitory effect, cancer versus non-cancer cell strains [1]	growth inhibitory effects on various cancer cell strains [1]	cancer cell apoptosis effect [2]	cancer cell apoptosis effect with respect to concentration and incubation time [2]	cancer cell apoptosis effect [3]	cancer cell apoptosis effect with respect to concentration and incubation time [3]	amount of extracellular LDH released [4]	amount of extracellular LDH released [5]	cancer cell growth inhibition [6]	cancer cell growth inhibition [7]	cell growth inhibitory effect [8]	cell growth inhibitory effect [9]
50	50	Cc1noc(C)c1CSc1nc2ccc(NC(=O)C3CCC(=O)CC3)cc2s1 [PB11]	selectively only on cancer cell strains	prominent	remarkable cancer cell apoptosis effects	improved cancer cell apoptosis effects with increases in concentration and incubation time	remarkable cancer cell apoptosis effects	improved cancer cell apoptosis effects with increases in concentration and incubation time	increased with time	increased with time				
50	50	COC1CCC(C(=O)Nc2ccc3nc(SCc4c(C)noc4C)sc3c2)CC1 (stereo not drawn) [PB01]	selectively only on cancer cell strains	prominent	remarkable cancer cell apoptosis effects	improved cancer cell apoptosis effects with increases in concentration and incubation time	remarkable cancer cell apoptosis effects	improved cancer cell apoptosis effects with increases in concentration and incubation time	increased with time	increased with time	most effective	most effective	nearly zero	nearly zero

Source: US9421193B2, “Benzothiazole derivatives and a use thereof for the treatment of cancer” (Korea Institute of Radiological & Medical Sciences, priority 2014, dated 2016)
